From the supplement of paper PMC6045584
± gives the standard deviation of the averaged measurements.

Assays:
[1] = compound: CC(=O)c1c(C)c2cnc(Nc3ccc(N4CCNCC4)cn3)nc2n(C2CCCC2)c1=O; experiment: surviving fraction relative to DMSO-only wells; higher = less growth inhibition; settings: exposure time: 5 days
In short: (§1)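 Tumour cell lines were seeded in log phase at 250–500 cells per well into 384-well plates. Starting 24 hours later, inhibitors were present continuously for five days at 0.5, 1, 5, 10, 50, 100, 500 and 1000 nM. Surviving fraction, from CellTiter-Glo luminescence, is normalised to the median of DMSO-only wells. Three screens per line were required, with replicate Pearson r >0.7 and median Z' >0.3 for a line to be kept.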

CARBOPLATIN [2] = compound: T1, O=C(O)C1(C(=O)O)CCC1.[NH2-].[NH2-].[Pt+2] [CARBOPLATIN]; experiment: as above; settings: exposure time: 5 days
In short: as §1

[3] = compound: CC(=O)NCC(=O)N1[C@@H]2CC[C@H]1c1ccc(Nc3ncc(C(F)(F)F)c(NC4CCC4)n3)cc12; experiment: as above; settings: exposure time: 5 days
In short: as §1

YM155 [4] = compound: T2, COCC[n+]1c2c(n(Cc3cnccn3)c1C)C(=O)c1ccccc1C2=O [YM155]; experiment: as above; settings: exposure time: 5 days
In short: as §1

OSI-906 [5] = compound: T3, C[C@]1(O)C[C@@H](c2nc(-c3ccc4ccc(-c5ccccc5)nc4c3)c3c(N)nccn32)C1 [OSI-906]; experiment: as above; settings: exposure time: 5 days
In short: as §1

PACLITAXEL [6] = compound: T4, CC(=O)O[C@H]1C(=O)[C@@]2(C)[C@H]([C@H](OC(=O)c3ccccc3)[C@]3(O)C[C@H](OC(=O)[C@H](O)[C@@H](NC(=O)c4ccccc4)c4ccccc4)C(C)=C1C3(C)C)[C@]1(OC(C)=O)CO[C@@H]1C[C@@H]2O [PACLITAXEL]; experiment: as above; settings: exposure time: 5 days
In short: as §1

CELECOXIB [7] = compound: T5, Cc1ccc(-c2cc(C(F)(F)F)nn2-c2ccc(S(N)(=O)=O)cc2)cc1 [CELECOXIB]; experiment: as above; settings: exposure time: 5 days
In short: as §1

GEFITINIB [8] = compound: T6, COc1cc2ncnc(Nc3ccc(F)c(Cl)c3)c2cc1OCCCN1CCOCC1 [GEFITINIB]; experiment: as above; settings: exposure time: 5 days
In short: as §1

CAMPTOTHECIN [9] = compound: T7, CC[C@@]1(O)C(=O)OCc2c1cc1n(c2=O)Cc2cc3ccccc3nc2-1 [CAMPTOTHECIN]; experiment: as above; settings: exposure time: 5 days
In short: as §1

[10] = compound: CC(=O)c1c(C)c2cnc(Nc3ccc(N4CCNCC4)cn3)nc2n(C2CCCC2)c1=O; experiment: area under dose-response curve of surviving fraction (unscaled, Aref=0) (surviving fraction x log10(nM)); higher = more resistant; settings: exposure time: 5 days; dose range 0.5-1000 nM
In short: (§2)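 Inhibitor was applied to tumour cell lines at eight concentrations (0.5 to 1000 nM) for five days in 384-well plates. Luminescence from CellTiter-Glo, scaled to DMSO-only wells, gave surviving fractions in three screens per line, and these were fitted by 3-parameter logistic regression with the drc R package. The area under the curve is an unscaled activity area. Aref was 0, and dose was on a log10 scale.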

CARBOPLATIN [11] = compound: T1, CARBOPLATIN; experiment: as above; settings: exposure time: 5 days; dose range 0.5-1000 nM
In short: as §2

[12] = compound: CC(=O)NCC(=O)N1[C@@H]2CC[C@H]1c1ccc(Nc3ncc(C(F)(F)F)c(NC4CCC4)n3)cc12; experiment: as above; settings: exposure time: 5 days; dose range 0.5-1000 nM
In short: as §2

YM155 [13] = compound: T2, YM155; experiment: as above; settings: exposure time: 5 days; dose range 0.5-1000 nM
In short: as §2

OSI-906 [14] = compound: T3, OSI-906; experiment: as above; settings: exposure time: 5 days; dose range 0.5-1000 nM
In short: as §2

PACLITAXEL [15] = compound: T4, PACLITAXEL; experiment: as above; settings: exposure time: 5 days; dose range 0.5-1000 nM
In short: as §2

CELECOXIB [16] = compound: T5, CELECOXIB; experiment: as above; settings: exposure time: 5 days; dose range 0.5-1000 nM
In short: as §2

GEFITINIB [17] = compound: T6, GEFITINIB; experiment: as above; settings: exposure time: 5 days; dose range 0.5-1000 nM
In short: as §2

CAMPTOTHECIN [18] = compound: T7, CAMPTOTHECIN; experiment: as above; settings: exposure time: 5 days; dose range 0.5-1000 nM
In short: as §2

Test System: SAOS2 BONE
- surviving fraction ([1]; 0.5 nM): 1.07 ± 0.062
- surviving fraction ([1]; 1 nM): 1.06 ± 0.034
- surviving fraction ([1]; 5 nM): 1.13 ± 0.051
- surviving fraction ([1]; 10 nM): 1.09 ± 0.037
- surviving fraction ([1]; 50 nM): 1.1287 ± 0.00058
- surviving fraction ([1]; 100 nM): 1.138 ± 0.0069
- surviving fraction ([1]; 500 nM): 1.13 ± 0.065
- surviving fraction ([1]; 1000 nM): 1.07 ± 0.013
- surviving fraction (CARBOPLATIN [2]; 0.5 nM): 1.1 ± 0.048
- surviving fraction (CARBOPLATIN [2]; 1 nM): 1.18 ± 0.014
- surviving fraction (CARBOPLATIN [2]; 5 nM): 1.18 ± 0.059
- surviving fraction (CARBOPLATIN [2]; 10 nM): 1.16 ± 0.073
- surviving fraction (CARBOPLATIN [2]; 50 nM): 1.15 ± 0.051
- surviving fraction (CARBOPLATIN [2]; 100 nM): 1.06 ± 0.11
- surviving fraction (CARBOPLATIN [2]; 500 nM): 1.09 ± 0.097
- surviving fraction (CARBOPLATIN [2]; 1000 nM): 0.943 ± 0.22
- surviving fraction ([3]; 0.5 nM): 1.03 ± 0.017
- surviving fraction ([3]; 1 nM): 1.045 ± 0.0052
- surviving fraction ([3]; 5 nM): 1.08 ± 0.069
- surviving fraction ([3]; 10 nM): 1.06 ± 0.092
- surviving fraction ([3]; 50 nM): 1.03 ± 0.065
- surviving fraction ([3]; 100 nM): 0.704 ± 0.049
- surviving fraction ([3]; 500 nM): 0.157 ± 0.0075
- surviving fraction ([3]; 1000 nM): 0.0957 ± 0.0029
- surviving fraction (YM155 [4]; 0.5 nM): 1.16 ± 0.021
- surviving fraction (YM155 [4]; 1 nM): 1.1 ± 0.097
- surviving fraction (YM155 [4]; 5 nM): 0.39 ± 0.035
- surviving fraction (YM155 [4]; 10 nM): 0.237 ± 0.0095
- surviving fraction (YM155 [4]; 50 nM): 0.053 ± 0.0069
- surviving fraction (YM155 [4]; 100 nM): 0.0327 ± 0.006
- surviving fraction (YM155 [4]; 500 nM): 0.0223 ± 0.00058
- surviving fraction (YM155 [4]; 1000 nM): 0.0293 ± 0.00058
- surviving fraction (OSI-906 [5]; 0.5 nM): 0.82 ± 0.027
- surviving fraction (OSI-906 [5]; 1 nM): 0.858 ± 0.013
- surviving fraction (OSI-906 [5]; 5 nM): 0.804 ± 0.085
- surviving fraction (OSI-906 [5]; 10 nM): 0.838 ± 0.045
- surviving fraction (OSI-906 [5]; 50 nM): 1.06 ± 0.018
- surviving fraction (OSI-906 [5]; 100 nM): 0.877 ± 0.066
- surviving fraction (OSI-906 [5]; 500 nM): 0.594 ± 0.016
- surviving fraction (OSI-906 [5]; 1000 nM): 0.522 ± 0.057
- surviving fraction (PACLITAXEL [6]; 0.5 nM): 1.08 ± 0.043
- surviving fraction (PACLITAXEL [6]; 1 nM): 1.06 ± 0.018
- surviving fraction (PACLITAXEL [6]; 5 nM): 0.46 ± 0.043
- surviving fraction (PACLITAXEL [6]; 10 nM): 0.165 ± 0.013
- surviving fraction (PACLITAXEL [6]; 50 nM): 0.0527 ± 0.004
- surviving fraction (PACLITAXEL [6]; 100 nM): 0.0527 ± 0.00058
- surviving fraction (PACLITAXEL [6]; 500 nM): 0.0447 ± 0.0063
- surviving fraction (PACLITAXEL [6]; 1000 nM): 0.0557 ± 0.0063
- surviving fraction (CELECOXIB [7]; 0.5 nM): 1.14 ± 0.078
- surviving fraction (CELECOXIB [7]; 1 nM): 1.05 ± 0.026
- surviving fraction (CELECOXIB [7]; 5 nM): 1.187 ± 0.01
- surviving fraction (CELECOXIB [7]; 10 nM): 1.14 ± 0.06
- surviving fraction (CELECOXIB [7]; 50 nM): 1.22 ± 0.07
- surviving fraction (CELECOXIB [7]; 100 nM): 1.23 ± 0.054
- surviving fraction (CELECOXIB [7]; 500 nM): 1.11 ± 0.021
- surviving fraction (CELECOXIB [7]; 1000 nM): 1.09 ± 0.018
- surviving fraction (GEFITINIB [8]; 0.5 nM): 1.11 ± 0.021
- surviving fraction (GEFITINIB [8]; 1 nM): 1.04 ± 0.065
- surviving fraction (GEFITINIB [8]; 5 nM): 1.21 ± 0.035
- surviving fraction (GEFITINIB [8]; 10 nM): 1.09 ± 0.05
- surviving fraction (GEFITINIB [8]; 50 nM): 1.12 ± 0.061
- surviving fraction (GEFITINIB [8]; 100 nM): 1.13 ± 0.06
- surviving fraction (GEFITINIB [8]; 500 nM): 1.01 ± 0.038
- surviving fraction (GEFITINIB [8]; 1000 nM): 0.907 ± 0.08
- surviving fraction (CAMPTOTHECIN [9]; 0.5 nM): 0.794 ± 0.046
- surviving fraction (CAMPTOTHECIN [9]; 1 nM): 0.829 ± 0.024
- surviving fraction (CAMPTOTHECIN [9]; 5 nM): 0.677 ± 0.055
- surviving fraction (CAMPTOTHECIN [9]; 10 nM): 0.415 ± 0.018
- surviving fraction (CAMPTOTHECIN [9]; 50 nM): 0.129 ± 0.006
- surviving fraction (CAMPTOTHECIN [9]; 100 nM): 0.059 ± 0.005
- surviving fraction (CAMPTOTHECIN [9]; 500 nM): 0.0293 ± 0.0032
- surviving fraction (CAMPTOTHECIN [9]; 1000 nM): 0.0267 ± 0.00058
- area under dose-response curve [10]: 3.65
- area under dose-response curve (CARBOPLATIN [11]): 3.68
- area under dose-response curve [12]: 2.47
- area under dose-response curve (YM155 [13]): 1.05
- area under dose-response curve (OSI-906 [14]): 2.83
- area under dose-response curve (PACLITAXEL [15]): 1.1
- area under dose-response curve (CELECOXIB [16]): 3.78
- area under dose-response curve (GEFITINIB [17]): 3.62
- area under dose-response curve (CAMPTOTHECIN [18]): 1.2
